Source: US8637511B2, “Aminopyrimidines useful as kinase inhibitors” (Vertex Pharmaceuticals Incorporated, priority 2005, dated 2014)

What was measured:
Colo205 cells = experiment: Analysis of cell proliferation and viability; assay type: cell-based; details: Homo sapiens, COLO 205; Colo205 cells, incubated for 96 hours; read-out: IC50 value
FLT-3 = molecular target: T1, FLT-3 (Homo sapiens, UniProt P36888); experiment: FLT-3 inhibition assay, radiometric filter-binding; assay type: biochemical
T1 sequence (P36888 27-993): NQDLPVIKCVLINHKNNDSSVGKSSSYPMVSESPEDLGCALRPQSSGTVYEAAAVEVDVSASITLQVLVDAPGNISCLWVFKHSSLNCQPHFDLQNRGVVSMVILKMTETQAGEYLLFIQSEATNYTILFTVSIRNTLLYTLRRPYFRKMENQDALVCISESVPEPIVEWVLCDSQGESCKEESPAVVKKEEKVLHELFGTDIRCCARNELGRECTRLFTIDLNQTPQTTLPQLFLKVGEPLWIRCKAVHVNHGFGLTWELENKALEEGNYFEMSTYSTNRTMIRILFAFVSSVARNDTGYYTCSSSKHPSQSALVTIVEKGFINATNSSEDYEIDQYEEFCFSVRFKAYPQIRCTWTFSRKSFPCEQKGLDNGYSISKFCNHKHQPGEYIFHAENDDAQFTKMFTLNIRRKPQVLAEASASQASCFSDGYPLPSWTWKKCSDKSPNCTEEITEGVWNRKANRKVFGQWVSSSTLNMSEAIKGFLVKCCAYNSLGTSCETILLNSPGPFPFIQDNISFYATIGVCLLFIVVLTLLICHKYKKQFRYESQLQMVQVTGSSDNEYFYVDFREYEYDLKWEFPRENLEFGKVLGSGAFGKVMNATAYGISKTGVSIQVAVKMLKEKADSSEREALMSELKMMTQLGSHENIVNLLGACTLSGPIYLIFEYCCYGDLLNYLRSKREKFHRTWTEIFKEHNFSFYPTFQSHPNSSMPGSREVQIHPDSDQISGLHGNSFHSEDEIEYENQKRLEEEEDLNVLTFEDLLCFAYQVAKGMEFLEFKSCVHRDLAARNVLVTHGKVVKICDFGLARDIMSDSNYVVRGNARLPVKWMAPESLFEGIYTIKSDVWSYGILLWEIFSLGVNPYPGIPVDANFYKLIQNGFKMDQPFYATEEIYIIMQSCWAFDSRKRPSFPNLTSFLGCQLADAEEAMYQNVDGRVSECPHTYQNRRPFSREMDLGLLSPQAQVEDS
Method: This assay monitors the 33P incorporation into a substrate poly(Glu, Tyr) 4:1 (pE4Y). […] Final substrate concentrations in the assay were 90 μM ATP and 0.5 mg/ml pE4Y (both from Sigma Chemicals, St. Louis, Mo.). […] Reactions were carried out at room temperature.
Two assay solutions were prepared. Solution 1 contains 100 mM HEPES (pH 7.5), 10 mM MgCl2, 25 mM NaCl, 1 mg/ml pE4Y and […] (containing 0.3 mCi of [γ-33^P]ATP for each reaction). Solution 2 contains 100 mM HEPES (pH 7.5), 10 mM MgCl2, 25 mM NaCl, 2 mM DTT, 0.02% BSA and 3 nM FLT-3. The assay was run on a 96 well plate by mixing 50 μl each of Solution 1 and […] of the compounds of the present invention. The reaction was initiated with Solution 2. […] All of the reaction volume was then transferred to a filter plate and washed with 5% TCA by a Harvester 9600 from TOMTEC (Hamden, Conn.). The amount of ^33P incorporation into pE4y was analyzed by a Packard Top Count Microplate Scintillation Counter (Meriden, Conn.). The data was fitted using Prism software to get an IC50 or Ki.

human Itk kinase = molecular target: T2, human Itk kinase (Homo sapiens, UniProt Q08881); experiment: Itk inhibition assay: radioactivity-based assay; assay type: biochemical; details: Ki(app)
T2 sequence (Q08881 1-620): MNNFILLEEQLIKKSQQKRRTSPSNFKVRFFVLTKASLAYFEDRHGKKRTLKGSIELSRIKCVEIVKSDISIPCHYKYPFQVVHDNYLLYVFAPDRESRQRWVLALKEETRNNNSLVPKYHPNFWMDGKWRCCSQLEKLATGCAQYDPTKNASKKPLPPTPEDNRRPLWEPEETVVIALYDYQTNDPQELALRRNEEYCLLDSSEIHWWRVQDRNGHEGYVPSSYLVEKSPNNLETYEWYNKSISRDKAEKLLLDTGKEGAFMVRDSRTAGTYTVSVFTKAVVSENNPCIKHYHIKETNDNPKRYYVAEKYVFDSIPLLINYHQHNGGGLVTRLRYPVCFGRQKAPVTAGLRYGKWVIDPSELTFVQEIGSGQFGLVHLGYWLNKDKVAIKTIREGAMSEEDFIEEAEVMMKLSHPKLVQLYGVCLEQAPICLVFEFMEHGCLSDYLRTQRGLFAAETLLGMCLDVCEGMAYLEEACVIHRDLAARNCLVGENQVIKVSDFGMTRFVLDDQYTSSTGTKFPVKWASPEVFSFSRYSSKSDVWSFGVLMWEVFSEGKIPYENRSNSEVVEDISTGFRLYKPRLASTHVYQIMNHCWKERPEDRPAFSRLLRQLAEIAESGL
Method: The compounds of the present invention were evaluated as inhibitors of human Itk kinase using a radioactivity-based assay. These compounds can also be evaluated using a spectrophotometric or alphascreen assay.
Assays were carried out in a mixture of 20 mM MOPS (pH 7.0), 10 mM MgCl2, 0.1% BSA and 1 mM DTT. Final substrate concentrations in the assay were 7.5 μM [γ-^33P]ATP (400 μCi ^33P ATP/μmol ATP, Amersham Pharmacia Biotech/Sigma Chemicals) and 3 μM peptide (SAM68 protein Δ332-443). Assays were carried out at 25° C. in the presence of 50 nM Itk. An assay stock buffer solution was prepared containing all of the reagents listed above, with the exception of ATP and the test compound of interest. 50 μL of the stock solution was placed in a 96 well plate followed by addition of 2 μL of DMSO stock containing serial dilutions of the test compound (typically starting from a final concentration of 50 μM with 2-fold serial dilutions) in duplicate (final DMSO concentration 2%). The plate was pre-incubated for 10 minutes at 25° C. and the reaction initiated by addition of 50 μL [γ-^33P]ATP (final concentration 7.5 μM).
The reaction was stopped after 10 minutes by the addition of 100 μL 0.2M phosphoric acid+0.01% TWEEN 20. A multiscreen phosphocellulose filter 96-well plate (Millipore, Cat no. MAPHNOB50) was pretreated with 100 μL 0.2M phosphoric acid+0.01% TWEEN 20 prior to the addition of 170 μL of the stopped assay mixture. The plate was washed with 4×200 μL 0.2M phosphoric acid+0.01% TWEEN 20. After drying, 30 μL Optiphase ‘SuperMix’ liquid scintillation cocktail (Perkin Elmer) was added to the well prior to scintillation counting (1450 Microbeta Liquid Scintillation Counter, Wallac).
Ki(app) data were calculated from non-linear regression analysis of the initial rate data using the Prism software package (GraphPad Prism version 3.0cx for Macintosh, GraphPad Software, San Diego Calif., USA).

## CCc1cc(Nc2cc(N3CCC3)nc(Sc3ccc(NC(=O)c4ccccc4Cl)cc3)n2)n[nH]1 [Compound 64]
Colo205 cells
  IC50: 50 to 1000 nM
FLT-3
  Ki: 50 to 150 nM
Human Itk kinase
  Ki: ≤ 100 nM
